Data set [1] addresses Rho-associated protein kinase 1 (Homo sapiens, UniProt Q13464). Put plainly: Inhibition of Rho-associated protein kinase 1 (unknown origin).
Data set [2] concerns the target Serine/threonine-protein kinase STK11 (Homo sapiens) (UniProt Q15831). Description: Inhibition of wild-type human full length LKB1 (M1 to Q433 residues) expressed in bacterial expression system assessed as residual activity at 50 nM by Kinomescan method relative to control.
The nature of data set [3]: Inhibition of ACTR2 (unknown origin) assessed as residual activity at 50 nM by Kinomescan method relative to control. To be noted: Homo sapiens.
Data set [4] is described as follows: Half life in human liver microsomes. Format: ADME, microsome.
For data set [5], the system named is Ribosomal protein S6 kinase alpha-2. Description: Inhibition of wild-type human partial length N-terminal RSK3 kinase domain 1 (M1 to Q385 residues) expressed in bacterial expression system assessed as residual activity at 50 nM by Kinomescan method relative to control.
A short description of data set [6]: Selectivity ratio of IC50 for JAK2 dependent EPO-induced STAT5A phosphorylation in human TF1 cells to IC50 for JAK1/JAK3 dependent IL2-induced STAT3 phosphorylation in human PBMC derived T-cells.
The target of data set [7] is Cyclin-dependent kinase-like 2 (Homo sapiens) (UniProt Q92772). Description: Inhibition of wild-type human partial length CDKL2 (M1 to D327 residues) expressed in bacterial expression system assessed as residual activity at 50 nM by Kinomescan method relative to control.
Sequence of Cyclin-dependent kinase-like 2 (Homo sapiens) (Q92772 whole entry, the tested form may be a part): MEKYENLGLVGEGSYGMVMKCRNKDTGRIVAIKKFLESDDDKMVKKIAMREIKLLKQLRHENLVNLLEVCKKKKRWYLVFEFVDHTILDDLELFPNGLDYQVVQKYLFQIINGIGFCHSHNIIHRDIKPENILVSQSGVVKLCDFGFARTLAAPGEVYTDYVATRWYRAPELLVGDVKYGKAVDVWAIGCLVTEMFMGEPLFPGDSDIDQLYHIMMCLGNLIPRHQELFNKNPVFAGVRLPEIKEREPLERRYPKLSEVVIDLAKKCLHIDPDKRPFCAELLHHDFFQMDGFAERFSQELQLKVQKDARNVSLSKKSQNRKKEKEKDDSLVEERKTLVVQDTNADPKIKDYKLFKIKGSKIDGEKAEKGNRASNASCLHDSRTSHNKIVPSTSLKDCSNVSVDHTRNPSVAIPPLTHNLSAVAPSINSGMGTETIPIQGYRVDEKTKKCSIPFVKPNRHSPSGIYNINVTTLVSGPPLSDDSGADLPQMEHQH
Data set [8] can be described thus: Aqueous solubility of compound at pH 6.5. The data set is classed as physicochemical.
Data set [9] in a line: AUC in Sprague-Dawley rat at 10 mg/kg, po. The data set is classed as ADME, organism-based. The following applies: in vivo.
The subject of data set [10] is Rattus norvegicus. Put plainly: Cardiotoxicity in rat assessed as decrease in blood pressure at 30 mg/kg, po. The data set is classed as toxicity, organism-based. Also on record: scale not given: the % may be the effect or the level left. To be noted: in vivo.
The nature of data set [11]: Volume of distribution at steady state in BALB/c mouse at 2 mg/kg, iv. The data set is classed as ADME, organism-based. The following applies: in vivo, read-out: Vdss.
The nature of data set [12]: Oral bioavailability in Sprague-Dawley rat at 10 mg/kg. The data set is classed as ADME, organism-based. To be noted: in vivo.
The target in data set [13] is Tyrosine-protein kinase Lyn (Homo sapiens) (UniProt P07948). Description: Inhibition of wild-type human partial length LYN (C219 to Q511 residues) expressed in bacterial expression system assessed as residual activity at 50 nM by Kinomescan method relative to control.
Sequence of Tyrosine-protein kinase Lyn (Homo sapiens) (P07948 2-512 limits assumed): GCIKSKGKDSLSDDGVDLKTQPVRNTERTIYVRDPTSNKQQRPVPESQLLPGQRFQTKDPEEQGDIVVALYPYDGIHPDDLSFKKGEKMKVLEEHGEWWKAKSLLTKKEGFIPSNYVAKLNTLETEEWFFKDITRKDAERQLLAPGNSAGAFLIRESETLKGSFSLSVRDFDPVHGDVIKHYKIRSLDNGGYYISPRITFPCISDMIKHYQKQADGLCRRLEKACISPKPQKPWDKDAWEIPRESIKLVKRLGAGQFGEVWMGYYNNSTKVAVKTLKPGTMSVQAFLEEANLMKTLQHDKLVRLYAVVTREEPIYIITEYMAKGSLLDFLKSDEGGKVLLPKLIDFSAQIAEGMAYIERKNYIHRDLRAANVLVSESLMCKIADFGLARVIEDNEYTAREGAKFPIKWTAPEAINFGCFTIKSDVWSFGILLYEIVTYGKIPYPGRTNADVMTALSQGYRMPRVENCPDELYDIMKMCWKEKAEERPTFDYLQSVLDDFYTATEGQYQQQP
A short description of data set [14]: Half life in Sprague-Dawley rat at 10 mg/kg, po. Format: ADME, organism-based. The following applies: in vivo.
For data set [15], the target named is Serine/threonine-protein kinase PAK 6 (Homo sapiens) (UniProt Q9NQU5). Description: Inhibition of wild-type human partial length PAK6 (N298 to C681 residues) expressed in bacterial expression system assessed as residual activity at 50 nM by Kinomescan method relative to control.
Sequence of Serine/threonine-protein kinase PAK 6 (Homo sapiens) (Q9NQU5 whole entry, looked up, the tested form may be a part): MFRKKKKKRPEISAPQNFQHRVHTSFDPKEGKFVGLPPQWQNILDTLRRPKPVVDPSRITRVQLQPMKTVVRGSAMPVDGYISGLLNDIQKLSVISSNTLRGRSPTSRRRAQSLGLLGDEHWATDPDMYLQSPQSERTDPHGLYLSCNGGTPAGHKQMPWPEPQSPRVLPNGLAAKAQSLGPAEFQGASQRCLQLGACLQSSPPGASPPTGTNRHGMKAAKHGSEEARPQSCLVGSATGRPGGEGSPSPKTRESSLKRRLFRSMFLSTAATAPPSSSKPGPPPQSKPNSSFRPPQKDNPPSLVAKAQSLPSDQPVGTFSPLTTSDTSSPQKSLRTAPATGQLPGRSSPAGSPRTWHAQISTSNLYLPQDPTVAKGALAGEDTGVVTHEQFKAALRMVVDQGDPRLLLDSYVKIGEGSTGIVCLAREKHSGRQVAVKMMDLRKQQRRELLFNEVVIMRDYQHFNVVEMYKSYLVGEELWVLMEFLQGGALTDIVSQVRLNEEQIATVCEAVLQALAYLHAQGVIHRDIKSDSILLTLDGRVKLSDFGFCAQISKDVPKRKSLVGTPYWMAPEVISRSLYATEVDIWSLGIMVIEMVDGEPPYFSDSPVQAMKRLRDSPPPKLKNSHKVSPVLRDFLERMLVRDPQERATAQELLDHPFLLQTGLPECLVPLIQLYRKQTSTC
Data set [16] has as its target Nuclear receptor subfamily 1 group I member 2 (Homo sapiens, UniProt O75469). Put plainly: Activation of PXR (unknown origin). The data set is classed as ADME.
Data set [17] can be described thus: Cmax in Sprague-Dawley rat at 10 mg/kg, po. To be noted: in vivo. Also on record: dose 10 mg/kg, route oral. The data set is classed as ADME, organism-based.
For data set [18], the target named is Serine/threonine-protein kinase 16 (Homo sapiens) (UniProt O75716). Description: Inhibition of wild-type human partial length STK16 (G11 to I305 residues) expressed in bacterial expression system assessed as residual activity at 50 nM by Kinomescan method relative to control.
Another data set has as its target Cytochrome P450 3A4 (Homo sapiens, UniProt P08684). Description: Inhibition of CYP3A4 (unknown origin). The data set is classed as ADME.
The nature of data set [19]: Half life in BALB/c mouse at 2 mg/kg, iv. The data set is classed as ADME, organism-based. The following applies: in vivo.
Data set [20] in a line: Cmin in mouse at 10 mg/kg, po after 24 hrs. The data set is classed as ADME, organism-based. To be noted: in vivo, read-out: Cmin.
Data set [21] is described as follows: AUC in BALB/c mouse at 2 mg/kg, iv. The data set is classed as ADME, organism-based. To be noted: in vivo.
Data set [22] has as its target Voltage-gated inwardly rectifying potassium channel KCNH2 (Homo sapiens, UniProt Q12809). Description: Inhibition of human ERG by patch clamp method. On the technique in general: Patch clamp records ionic current or voltage across a cell membrane.
Data set [23] concerns the target Tyrosine-protein kinase Fgr (Homo sapiens) (UniProt P09769). Description: Inhibition of wild-type human partial length FGR (L233 to T529 residues) expressed in bacterial expression system assessed as residual activity at 50 nM by Kinomescan method relative to control.
The nature of data set [24]: Clearance in BALB/c mouse at 2 mg/kg, iv. The data set is classed as ADME, organism-based. To be noted: in vivo.
Data set [25] deals with Serine/threonine-protein kinase NIM1 (Homo sapiens) (UniProt Q8IY84). Description: Inhibition of wild-type human partial length NIM1 (Q44 to N355 residues) expressed in mammalian expression system assessed as residual activity at 50 nM by Kinomescan method relative to control.
Sequence of Serine/threonine-protein kinase NIM1 (Homo sapiens) (Q8IY84 whole entry, the tested form may be a part): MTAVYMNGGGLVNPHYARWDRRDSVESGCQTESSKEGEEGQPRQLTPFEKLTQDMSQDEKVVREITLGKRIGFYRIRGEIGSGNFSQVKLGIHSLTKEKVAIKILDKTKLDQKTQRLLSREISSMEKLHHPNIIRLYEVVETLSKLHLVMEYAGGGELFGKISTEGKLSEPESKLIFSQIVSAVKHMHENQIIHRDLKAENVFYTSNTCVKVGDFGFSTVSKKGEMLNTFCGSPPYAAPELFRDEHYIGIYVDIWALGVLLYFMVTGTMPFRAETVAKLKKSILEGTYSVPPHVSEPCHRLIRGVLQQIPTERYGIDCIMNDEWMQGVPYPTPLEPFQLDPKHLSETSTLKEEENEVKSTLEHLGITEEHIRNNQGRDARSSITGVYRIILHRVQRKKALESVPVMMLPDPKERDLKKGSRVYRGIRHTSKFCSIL
A short description of data set [26]: Cmax in BALB/c mouse at 10 mg/kg, po. The data set is classed as ADME, organism-based. Also on record: dose 10 mg/kg, route oral. To be noted: in vivo.
The target in data set [27] is Mitogen-activated protein kinase 9 (Homo sapiens) (UniProt P45984). Put plainly: Inhibition of wild-type human full length JNK2 (M1 to Q382 residues) expressed in mammalian expression system assessed as residual activity at 50 nM by Kinomescan method relative to control.
Sequence of Mitogen-activated protein kinase 9 (Homo sapiens) (P45984 whole entry, looked up, the tested form may be a part): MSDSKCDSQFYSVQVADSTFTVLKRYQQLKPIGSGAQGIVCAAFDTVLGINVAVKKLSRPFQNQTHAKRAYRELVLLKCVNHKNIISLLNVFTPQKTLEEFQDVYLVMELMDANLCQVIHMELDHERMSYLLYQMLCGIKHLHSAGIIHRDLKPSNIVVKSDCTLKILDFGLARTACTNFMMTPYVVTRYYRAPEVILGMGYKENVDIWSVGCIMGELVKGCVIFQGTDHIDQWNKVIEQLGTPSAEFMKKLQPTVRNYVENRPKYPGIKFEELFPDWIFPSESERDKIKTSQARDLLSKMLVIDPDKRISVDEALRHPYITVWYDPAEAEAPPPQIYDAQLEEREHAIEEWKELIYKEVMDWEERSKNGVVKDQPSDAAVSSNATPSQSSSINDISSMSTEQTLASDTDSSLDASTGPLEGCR
The nature of data set [28]: AUC in Sprague-Dawley rat at 2 mg/kg, iv. Format: ADME, organism-based. To be noted: in vivo.
Data set [29] is described as follows: Metabolic stability in mouse liver microsomes assessed as compound remaining after 10 mins. Format: ADME, microsome. To be noted: read-out: Stability. In general terms: Liver microsomes are a subcellular fraction often used to study metabolism.
Data set [30] concerns the target Mitogen-activated protein kinase kinase kinase 1 (Homo sapiens) (UniProt Q13233). Put plainly: Inhibition of wild-type human partial length MAP3K1 (L1202 to W1512 residues) expressed in mammalian expression system assessed as residual activity at 50 nM by Kinomescan method relative to control.
In data set [31] the target is Myosin light chain kinase family member 4 (Homo sapiens) (UniProt Q86YV6). Put plainly: Inhibition of wild-type human partial length SGK085 (V79 to S380 residues) expressed in bacterial expression system assessed as residual activity at 50 nM by Kinomescan method relative to control.
Sequence of Myosin light chain kinase family member 4 (Homo sapiens) (Q86YV6 whole entry, the tested form may be a part): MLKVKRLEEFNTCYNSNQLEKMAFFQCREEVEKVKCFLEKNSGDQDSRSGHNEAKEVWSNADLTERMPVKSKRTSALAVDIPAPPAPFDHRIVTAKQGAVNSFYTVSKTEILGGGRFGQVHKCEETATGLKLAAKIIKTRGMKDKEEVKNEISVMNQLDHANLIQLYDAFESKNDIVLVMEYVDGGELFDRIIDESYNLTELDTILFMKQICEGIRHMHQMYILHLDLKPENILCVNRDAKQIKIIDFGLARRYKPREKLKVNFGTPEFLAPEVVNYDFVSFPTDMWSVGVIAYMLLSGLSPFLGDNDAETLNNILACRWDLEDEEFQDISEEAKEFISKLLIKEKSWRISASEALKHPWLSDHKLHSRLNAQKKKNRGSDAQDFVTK
A short description of data set [32]: Protein binding in human plasma. The data set is classed as ADME, cell-free. The following applies: read-out: PPB (converted).
In data set [33] the target is Tyrosine-protein kinase JAK1 (Homo sapiens, UniProt P23458). Put plainly: Inhibition of wild-type human partial length JAK1 JH2 pseudokinase domain (R537 to D855 residues) expressed in mammalian expression system assessed as residual activity at 50 nM by Kinomescan method relative to control.
For the next data set, the system named is Oryctolagus cuniculus. Put plainly: Cardiotoxicity in rabbit assessed as increase in heart rate at >3 mg/kg. Format: toxicity, organism-based. To be noted: in vivo.
Data set [34] deals with Rattus norvegicus. Put plainly: Toxicity in rat assessed as mortality at 200 mg/kg. Format: organism-based. The following applies: in vivo.
For data set [35], the system named is Mus musculus. Description: Antiarthritic activity in collagen-induced mouse model assessed as […] at 10 mg/kg, po qd up to 41 days. The data set is classed as functional, organism-based.
For data set [36], the system named is Mus musculus. Description: Antiarthritic activity in collagen-induced arthritis mouse model assessed as reduction in inflammation at 2 mg/kg, po qd measured up to 41 days. Format: functional, organism-based.
Data set [37] can be described thus: Drug concentration in mouse after 24 hrs. To be noted: in vivo, read-out: Drug uptake. Format: ADME.
Data set [38] is described as follows: Drug concentration in mouse at 2 mg/kg, po qd after 24 hrs. Format: ADME, organism-based. The following applies: in vivo, read-out: Drug uptake.
The nature of data set [39]: Clearance of compound in mouse. The data set is classed as ADME, organism-based. To be noted: in vivo.
Data set [40] can be described thus: Protein binding in human serum. The following applies: read-out: PB (converted). Format: ADME, cell-free.

Values after ≈ are worked out from the molar mass of the structure shown. Active and inactive are the calls of the source. No cut-off for these calls is given here. Some results are limits rather than exact numbers.

As a reminder, the IC50 is the concentration that gives 50% inhibition. Usually half-life stands for how long it takes for the measured level to halve. The solubility is how much of the substance goes into solution per volume. A word on the AUC: it is the area under the concentration-time curve, a measure of exposure. The term bioavailability denotes the share of a dose that reaches the circulation, judged against a reference dose that is usually intravenous. In general, EC50 refers to the concentration at which the effect is half-maximal. Broadly, the Cmax is the highest concentration seen after dosing. For orientation: clearance means the volume of plasma or blood freed of the substance per unit of time.

Sequence of Voltage-gated inwardly rectifying potassium channel KCNH2 (Q12809 whole entry, the tested form may be a part): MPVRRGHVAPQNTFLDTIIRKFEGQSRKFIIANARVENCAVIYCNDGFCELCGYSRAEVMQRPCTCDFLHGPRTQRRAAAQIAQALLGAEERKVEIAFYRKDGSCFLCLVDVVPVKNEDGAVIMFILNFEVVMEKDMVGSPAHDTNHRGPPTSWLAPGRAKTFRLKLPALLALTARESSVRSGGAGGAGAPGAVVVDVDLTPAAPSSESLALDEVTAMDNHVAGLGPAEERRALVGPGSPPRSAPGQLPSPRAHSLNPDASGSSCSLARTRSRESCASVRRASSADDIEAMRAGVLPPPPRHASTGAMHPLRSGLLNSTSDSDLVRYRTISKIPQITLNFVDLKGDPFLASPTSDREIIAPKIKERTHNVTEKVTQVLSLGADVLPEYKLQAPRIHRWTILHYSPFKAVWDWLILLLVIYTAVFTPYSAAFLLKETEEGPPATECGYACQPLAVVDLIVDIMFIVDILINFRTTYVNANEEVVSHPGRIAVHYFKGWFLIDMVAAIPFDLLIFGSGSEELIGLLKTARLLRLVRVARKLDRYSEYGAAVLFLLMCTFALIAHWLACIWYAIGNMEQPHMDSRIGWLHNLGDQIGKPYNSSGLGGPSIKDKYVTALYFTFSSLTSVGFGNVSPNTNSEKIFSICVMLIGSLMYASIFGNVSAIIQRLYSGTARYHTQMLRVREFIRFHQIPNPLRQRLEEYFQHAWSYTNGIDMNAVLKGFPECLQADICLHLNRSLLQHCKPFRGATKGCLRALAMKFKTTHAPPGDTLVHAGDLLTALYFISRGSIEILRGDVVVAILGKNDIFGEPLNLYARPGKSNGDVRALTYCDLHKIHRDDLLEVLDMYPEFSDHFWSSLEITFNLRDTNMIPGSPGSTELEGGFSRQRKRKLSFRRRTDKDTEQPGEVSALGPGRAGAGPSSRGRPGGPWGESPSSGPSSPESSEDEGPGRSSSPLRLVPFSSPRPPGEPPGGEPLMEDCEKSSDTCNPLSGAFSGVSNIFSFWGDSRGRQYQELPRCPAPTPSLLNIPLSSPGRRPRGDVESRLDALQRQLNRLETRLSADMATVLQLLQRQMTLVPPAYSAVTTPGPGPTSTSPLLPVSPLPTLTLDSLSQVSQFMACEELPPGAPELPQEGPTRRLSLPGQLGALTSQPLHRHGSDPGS
Sequence of Nuclear receptor subfamily 1 group I member 2 (O75469 whole entry): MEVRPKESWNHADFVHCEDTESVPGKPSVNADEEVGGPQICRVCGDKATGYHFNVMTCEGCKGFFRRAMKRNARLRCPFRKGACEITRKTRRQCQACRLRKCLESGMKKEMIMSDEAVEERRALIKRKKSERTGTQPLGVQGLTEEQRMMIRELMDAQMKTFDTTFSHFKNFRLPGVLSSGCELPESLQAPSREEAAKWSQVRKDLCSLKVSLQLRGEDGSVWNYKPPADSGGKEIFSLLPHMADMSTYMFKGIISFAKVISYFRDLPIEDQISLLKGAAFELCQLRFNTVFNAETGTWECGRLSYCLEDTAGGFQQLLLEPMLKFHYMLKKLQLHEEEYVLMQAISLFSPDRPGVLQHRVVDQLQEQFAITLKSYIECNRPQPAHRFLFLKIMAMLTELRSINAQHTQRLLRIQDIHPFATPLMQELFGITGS
Sequence of Serine/threonine-protein kinase STK11 (Homo sapiens) (Q15831 whole entry, the tested form may be a part): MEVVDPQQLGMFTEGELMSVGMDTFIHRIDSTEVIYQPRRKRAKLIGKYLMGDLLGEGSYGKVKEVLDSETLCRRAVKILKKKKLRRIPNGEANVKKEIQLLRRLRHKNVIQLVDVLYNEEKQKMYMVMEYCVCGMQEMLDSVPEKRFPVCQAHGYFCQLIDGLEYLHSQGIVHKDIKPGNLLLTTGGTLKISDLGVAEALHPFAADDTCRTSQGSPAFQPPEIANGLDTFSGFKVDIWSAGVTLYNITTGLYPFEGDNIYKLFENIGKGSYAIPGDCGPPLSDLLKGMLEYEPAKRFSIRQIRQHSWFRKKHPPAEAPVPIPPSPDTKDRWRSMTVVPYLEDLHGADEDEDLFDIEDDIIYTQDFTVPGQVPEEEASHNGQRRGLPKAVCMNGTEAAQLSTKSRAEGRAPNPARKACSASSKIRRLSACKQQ

Consider `COc1ccc(-c2cc3c(N[C@@H]4CC[C@](C)(N)C4(C)C)c(C(N)=O)cnn3c2)cn1`, for which the IC50 in data set [1] was found to be 0.095 µM; at Cytochrome P450 3A4 it was 11 µM; in data set [22], 3 µM. Further, the Activity in data set [2] turned out to be 100%; in data set [3], 100%; in [5] it was 87%; in data set [7], 93%; with Rattus norvegicus [10], 14%; in data set [13] it was 100%. The Activity was found to be 87% in [15]; 87% in data set [18]; 99% in data set [23]; 90% in data set [25]; 88% in [27]; 98% in [30]. Besides, the Activity was 94% in [31], 78% in data set [33], “Toxic” in the data set on Oryctolagus cuniculus and “Toxic” with Rattus norvegicus [34]. Further, the half-life in [4] was > 1.5 h; in [14], 12.2 h; in [19], 6.5 h. Besides, the “Ratio IC50” value in data set [6] is 130. For the same compound, the concentration in solution in data set [8] (solubility) came to 0.079 mg/mL (≈ 193 µM). In addition, the AUC in data set [9] worked out at 12.9 µM·h; in [21], 4.9 µM·h; in data set [28], 5.8 µM·h. In addition, the Vd in data set [11] was determined as 8.2 L/kg. The compound also gave a bioavailability in data set [12] of 44%. For the same compound, the EC50 in [16] was > 17 µM. Also, the Cmax in data set [17] is 0.6 µM; in [26], 1.1 µM. Moreover, the concentration at 24 h in data set [20] came out at 0.3 µM. Moreover, in data set [24], the clearance worked out at 1 L/h/kg. Moreover, the remaining at 10 min in [29] was determined as 95%. Further, the fraction unbound in data set [32] was 0.1.
As to `CC1(C)[C@H](Nc2c(C(N)=O)cnn3cc(-c4ccccc4)cc23)CC[C@]1(C)N`, the result with Mus musculus [35] was Active. The outcome in the data set on Mus musculus [36] was inactive. Further, the concentration at 24 h in data set [37] came to 0.23 µM; in [38], 0.06 µM. The clearance in [39] was determined as 1.74 L/h/kg. Besides, the fraction unbound in data set [40] is 0.52.

These data come from ChEMBL document CHEMBL4052645, “Discovery of potent and efficacious pyrrolopyridazines as dual JAK1/3 inhibitors” (Bioorg Med Chem Lett, 2017).
